From paper PMC9240354, “Pharmacokinetics, Pharmacodynamics and Antiviral Efficacy of the MEK Inhibitor Zapnometinib in Animal Models and in Humans” (Frontiers in Pharmacology, 2022)
Read-outs that look alike come from different tables or passages of the source.

What was measured:
MEK = MEK inhibition in PBMCs of treated Syrian hamsters (pERK/ERK, Wes); assay type: in vivo; settings: hamster PBMCs
Description: PBMCs were isolated from the same blood samples (30 µl mouse blood, 50 µl hamster blood, or 1 ml dog blood) used for pharmacokinetic analysis. After plasma separation as described in the section above (Blood sampling and preparation of plasma samples), the remaining red blood cells were lysed by adding 1 volume of red blood cell (RBC) lysis buffer (Thermo Fisher Scientific, Waltham, MA, United States) (300 µl for mice, 500 µl for hamster, and 10 ml for dogs). The samples were incubated for 15 min at RT and centrifuged at 500 x g for 5 min (RT). The supernatant was removed completely, and the pellet was washed twice with PBS. The PBMC cell pellets were store at −80°C until further analysis. PBMCs of 8 ml human blood were isolated using CPT^TM tubes. After a 20-min centrifugation at 1,650 x g at room temperature, the plasma was collected for PK analysis as described in the section above (Blood sampling and preparation of plasma samples). […]
The pharmacodynamic assessment was performed using the Wes™ (Simple Western™) system which uses capillary electrophoresis to separate, identify and quantify proteins of interest. A chemiluminescence signal for each identified protein is detected and the area under the peak is calculated, which is then used for quantification. The 0.1x Sample Buffer, 400 mM dithiothreitol (DTT) solution, 5x Fluorescence Master Mix, and the Biotinylated Ladder (ProteinSimple®, Abingdon, Oxford, United Kingdom) were prepared according to manufacturer’s instructions. […] Then the 5x Fluorescence Master Mix in DTT (ProteinSimple®) was added, and the samples were denatured for 5 min at 95°C, loaded onto the assay plate and analyzed using specific antibodies. […] The anti-rabbit secondary antibody (Cat# DM-001) was also purchased from ProteinSimple® and was ready to use. Data were analyzed with Compass software for simple western (ProteinSimple®). Using the ratio of pERK to ERK of each sample compared to control (pre-dose), the level of ERK phosphorylation was calculated and then converted into the percentage level of MEK inhibition.

[1] = healthy volunteers, n = 8
SARS-CoV-2 = system: SARS-CoV-2; design: method as in Schreiber et al., 2022; settings: reduction in viral growth in cell lines; ref Schreiber et al., 2022; cited from earlier work

Structure (SMILES): O=C(O)c1ccc(F)c(F)c1Nc1ccc(I)cc1Cl [zapnometinib, 2-(2-Chloro-4-Iodophenylamino)-N-3,4-Difluoro benzoic acid]
- MEK inhibition 12 h after the first treatment (MEK; 15 mg/kg BID): 25 ± 15%
- MEK inhibition at 24 h (MEK; 15 mg/kg BID, 15 mg/kg): 43 ± 8%
- MEK inhibition at 24 h (MEK; 60 mg/kg OD): 55 ± 26%
- C24 h ([1]; single oral dose 100 mg): 1000 ± 400 ng/mL
- C24 h ([1]; single oral dose 300 mg): 4000 ± 800 ng/mL
- C24 h ([1]; single oral dose 600 mg): 8000 ± 2000 ng/mL
- C24 h ([1]; single oral dose 900 mg): 16000 ± 6000 ng/mL
- anti-SARS-CoV-2 activity (SARS-CoV-2): potent anti-SARS-CoV-2 activity
